Assay [1] relates to SK-OV-3 ovarian cancer cell line. Put plainly: Cell growth inhibition, SRB assay, extended panel. In kind it is cell-based. The note with it: Homo sapiens, SK-OV-3, 120 h, read-out: GI50 Range. Here is the method:
(§1) The cells were cultured for 5 days before the Sulforhodamine B assay (SRB) was performed to determine the compound's cell growth inhibition activity.
(§2) Sulforhodamine B (purchased from Sigma, Oakville, ON, Canada) is a water-soluble dye that binds to the basic amino acids of the cellular proteins. Thus, colorimetric measurement of the bound dye provides an estimate of the total protein mass that is related to the cell number. the cells are fixed in situ by gently aspirating off the culture media and adding 50 μl ice cold 10% Trichloroacetic Acid (TCA) per well and incubate at 4° C. for 30-60 min, The plates are washed with water five times and allowed to air dry for 5 min. […] Following staining, plates are washed four times with 1% acetic acid to remove unbound dye and then allowed to air dry for 5 min. […] Absorbance is read at 570 nm.
(§3) The percentage (%) of relative growth inhibition was calculated by comparing to DMSO treated only cells (100%). GI50's were determined for compounds with cytotoxic activity. The GI50 was calculated using GraphPad PRISM software (GraphPad Software, Inc., San Diego, Calif., USA).
(§4) The sulforhodamine B assay (SRB) described above was use to assay test compounds against the extended panel (Table 6).
On the technique in general: In SRB staining, fixed cells bind dye roughly in proportion to their protein.

In assay [2] the test system is PC-3 prostate cancer cell line. Nature of the assay: Cell growth inhibition, SRB assay, extended panel. In kind it is cell-based. The note with it: 120 h, read-out: GI50 Range. How it is done: as §1, §2, §3, §4
The test system of assay [3] is SKBR3 breast cancer cell line. Nature of the assay: Cell growth inhibition, SRB assay, extended panel. The following applies: Homo sapiens, SK-BR-3, 120 h, read-out: GI50 Range. In kind it is cell-based. Here is the method:
as §1, §2, §3, §4

The subject of assay [4] is HCT-15 colon cancer cell line. Nature of the assay: Cell growth inhibition, SRB assay, extended panel. In kind it is cell-based. The note with it: Homo sapiens, HCT-15, 120 h, read-out: GI50 Range. How it is done:
as §1, §2, §3, §4

Assay [5] concerns BT474 breast cancer cell line. Put plainly: Cell growth inhibition, SRB assay, extended panel. In kind it is cell-based. The following applies: Homo sapiens, BT-474, 120 h, read-out: GI50 Range. Here is the method:
as §1, §2, §3, §4

Assay [6] has as its system HCT116+/+ colon cancer cell line. Put plainly: Cell growth inhibition, SRB assay, extended panel. In kind it is cell-based. The following applies: Homo sapiens, HCT-116, 120 h, read-out: GI50 Range. Here is the method: as §1, §2, §3, §4
Assay [7] concerns 184A1 immortalized breast cell line. Nature of the assay: Cell growth inhibition, SRB assay, extended panel. The following applies: 184A1, 120 h, read-out: GI50 Range. In kind it is cell-based. How it is done: as §1, §2, §3, §4
The subject of assay [8] is SW 626 ovarian cancer cell line. Put plainly: Cell growth inhibition, SRB assay, extended panel. In kind it is cell-based. The note with it: Homo sapiens, SW626, 120 h, read-out: GI50 Range. How it is done:
as §1, §2, §3, §4

Assay [9] relates to HCT116+/− colon cancer cell line. Nature of the assay: Cell growth inhibition, SRB assay, extended panel. In kind it is cell-based. The note with it: Homo sapiens, HCT-116, 120 h, read-out: GI50 Range. Here is the method:
as §1, §2, §3, §4

Assay [10] has as its system HUV-EC-C cells. Nature of the assay: In Vitro Angiogenesis Assay (tube formation). The following applies: HUV-EC-C cells on ECMatrix, 4 hr; FIGS. 1 and 2.
The subject of assay [11] is human mammary epithelial primary cells (HMEC). Put plainly: Cell growth inhibition, Sulforhodamine B assay (SRB). The note with it: 120 h, read-out: Cell Line GI50 Range HMEC.
Assay [12] has as its system HCC1954 basal breast cancer cell line. Described as above. In kind it is cell-based. The note with it: Homo sapiens, HCC1954, 120 h, read-out: Cell Line GI50 Range HCC-1954. A digest of the protocol:
(§5)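 Growth inhibition is measured by SRB staining after 5 days of culture. Cells are fixed with cold 10% TCA, stained, washed with 1% acetic acid and read at 570 nm. Values are relative to DMSO-treated cells, with GI50 calculated for cytotoxic compounds.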

For assay [13], the system named is SW620 colon cancer cell line. The assay is described as above. The following applies: Homo sapiens, SW-620, 120 h, read-out: Cell Line GI50 Range SW-620, SW620 colon cancer cell line; 5 days culture; SRB. In kind it is cell-based. A digest of the protocol: as §5

One may read the GI50 as the concentration that inhibits growth by half. With `CN(C)Cc1ccc(/C=C/c2n[nH]c3cc([C@@H]4C[C@@]45C(=O)Nc4ccccc45)ccc23)cc1` (racemic) [Example A23, (1R*,2S*)-(E)-2-(3-(4-((dimethylamino)methyl)styryl)-1H-indazol-6-yl)spiro[cyclopropane-1,3′-indolin]-2′-one 2,2,2-trifluoroacetate], the GI50 in [1], in assay [2], in [3], in [4], in assay [5] and in assay [6] was 1 to 50 µM each time. Besides, the GI50 in [7] was 1 to 50 µM; in assay [8], 1 to 50 µM; in [9] it was 1 to 50 µM; in assay [11], over 10 µM; in assay [12] it was 1 to 10 µM; in [13], under 0.1 µM. Besides, in assay [10], the “anti-angiogenic effect (tube formation, % of control tube count)” value is “anti-agiogenic effects at submicromolar concentrations”.

(Values after patent publication US8481525B2, “Kinase inhibitors and method of treating cancer with same” (University of Health Network, priority 2009, dated 2013).)
